# Laboratory results published in patent US12252488B2 (Nimbus Saturn, Inc., priority 2021, dated 2025).
# Biological target: T1, HPK1 (Homo sapiens, UniProt Q92918)
# T1 construct: purchased Invitrogen
# Assay: HPK1 biochemical enzyme assay (microfluidic mobility shift assay)
# Conditions: 1000 uM (1 mM) ATP; Caliper mobility shift; 1.5 nM HPK1; 30 min preincubation; read-out: HPK1 1000UMATP caliper IC50
# Experimental: Example 33. HPK1 Biochemical Enzyme Assay
# HPK1 biochemical enzyme assay: HPK1 enzyme inhibition was measured using a microfluidic mobility shift assay. Reactions were performed in a 384-well plate, containing 1.5 nM HPK1 (Invitrogen), in assay buffer (Carna Biosciences; pH 7.4). Test compounds were titrated in ten point curves (top final assay concentration 3 μM), and preincubated with enzyme/substrate mix for 30 min prior to initiation of the reaction by addition of ATP (1 mM final concentration) and substrate (1 μM final concentration; Carna Biosciences) diluted in assay buffer supplemented by MgCl2 (final assay concentration of 5 mM). Following 60 min incubation at RT, the reaction was terminated by addition of 60 μl/well termination buffer (Carna Biosciences) and signal determination using a Caliper EZ Reader (Perkin Elmer, UK).
# The compound numbers correspond to the compound numbers in Table 1. Compounds having an activity designated as “A” provided an IC50≤100 nM; compounds having an activity designated as “B” provided an IC50>100 nM and ≤1,000 nM; compounds having an activity designated as “C” provided an IC50>1,000 nM.
# T1 sequence (Q92918 whole entry): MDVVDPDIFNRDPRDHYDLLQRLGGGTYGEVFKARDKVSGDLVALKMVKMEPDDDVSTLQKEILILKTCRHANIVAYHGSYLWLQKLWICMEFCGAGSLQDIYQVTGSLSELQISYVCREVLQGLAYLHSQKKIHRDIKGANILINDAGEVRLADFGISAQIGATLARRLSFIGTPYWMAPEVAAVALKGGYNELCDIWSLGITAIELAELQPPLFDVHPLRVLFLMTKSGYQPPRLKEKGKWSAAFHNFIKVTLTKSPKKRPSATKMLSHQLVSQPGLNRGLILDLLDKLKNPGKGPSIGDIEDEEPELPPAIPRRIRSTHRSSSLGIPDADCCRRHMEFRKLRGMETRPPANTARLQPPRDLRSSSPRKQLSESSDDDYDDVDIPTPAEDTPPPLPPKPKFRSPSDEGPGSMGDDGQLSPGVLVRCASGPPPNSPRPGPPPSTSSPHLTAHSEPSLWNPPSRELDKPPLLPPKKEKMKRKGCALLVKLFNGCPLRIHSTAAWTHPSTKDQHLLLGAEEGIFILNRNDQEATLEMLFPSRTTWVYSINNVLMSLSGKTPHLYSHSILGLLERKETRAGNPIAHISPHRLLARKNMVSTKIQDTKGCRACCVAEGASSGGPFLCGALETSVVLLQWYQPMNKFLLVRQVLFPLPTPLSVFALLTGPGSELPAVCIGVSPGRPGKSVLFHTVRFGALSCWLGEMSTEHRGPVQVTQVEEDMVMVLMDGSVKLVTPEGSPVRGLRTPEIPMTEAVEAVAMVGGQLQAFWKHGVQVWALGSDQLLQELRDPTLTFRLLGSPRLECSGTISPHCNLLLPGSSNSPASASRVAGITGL
row,IC50 [nM],SMILES
1,≤ 100,"O=C(Nc1ccc(-c2cc(Nc3ccc(N4C[C@H]5COC[C@H]5C4)cn3)c3c(=O)[nH]ccc3n2)c(F)c1)C1CCCCC1 [I-207, N-[4-[4-[[5-[(3aR,6aS)-1,3,3a,4,6,6a-hexahydro-furo[3,4-c]pyrrol-5-yl]-2-pyridyl]amino]-5-oxo-6H-1,6-naphthyridin-2-yl]-3-fluoro-phenyl] cyclohexane-carboxamide]"
2,≤ 100,"O=c1[nH]ccc2nc(-c3cc(OC(F)(F)F)ccc3F)cc(Nc3ccc(N4CCC(O)CC4)cn3)c12 [I-106, 2-[2-fluoro-5-(trifluoro-methoxy)phenyl]-4-[[5-(4-hydroxy-1-piperidyl)-2-pyridyl]amino]-6H-1,6-naphthyridin-5-one]"
3,≤ 100,"O=C(Nc1ccc(-c2cc(Nc3ccc(N4CCC(O)CC4)cn3)c3c(=O)[nH]ccc3n2)c(F)c1)[C@@H]1C[C@H]2CC[C@@H]1C2 (single isomer, unassigned) [I-277]"
4,≤ 100,"CC(C)c1ccc(F)c(-c2cc(Nc3ccc(N4CCN(C)CC4)cn3)c3c(=O)[nH]ccc3n2)c1 [I-109, 2-(2-fluoro-5-isopropyl-phenyl)-4-[[5-(4-methyl-piperazin-1-yl)-2-pyridyl]amino]-6H-1,6-naphthyridin-5-one]"
5,> 1000,"O=C(c1ccc(-c2cc(Nc3ccc(N4CCC(O)CC4)cn3)c3c(=O)[nH]ccc3n2)c(F)c1)N1CCCCC1CO (stereo not drawn) [I-141, 2-[2-fluoro-4-[2-(hydroxy-methyl)piperidine-1-carbonyl]phenyl]-4-[[5-(4-hydroxy-1-piperidyl)-2-pyridyl]amino]-6H-1,6-naphthyridin-5-one]"
6,≤ 100,"Cc1n[nH]c2cc(F)c(-c3cc(Nc4ccc(N5CCNCC5)cn4)c4c(=O)[nH]ccc4n3)cc12 [I-168, 2-(6-fluoro-3-methyl-1H-indazol-5-yl)-4-[[5-piperazin-1-yl-2-pyridyl)amino]-6H-1,6-naphthyridin-5-one]"
7,≤ 100,"O=c1[nH]ccc2nc(N3CCC[C@H](O)C3)cc(Nc3ccc(N4CCC(O)CC4)cn3)c12 [I-81, 2-[(3S)-3-hydroxy-1-piperidyl]-4-[[5-(4-hydroxy-1-piperidyl)-2-pyridyl]amino]-6H-1,6-naphthyridin-5-one]"
8,100 to 1000,"COc1cc(-c2cc(Nc3ccc(N4[C@H](C)COC[C@H]4C)cn3)c3c(=O)[nH]ccc3n2)c(F)cc1C(=O)N1CCCCC1 [I-190, 4-[[5-[(3R, 5R)-3,5-dimethyl-morpholin-4-yl]-2-pyridyl]amino]-2-[2-fluoro-5-methoxy-4-(piperidine-1-carbonyl)phenyl]-6H-1,6-naphthyridin-5-one]"
9,≤ 100,"CN1CCC(c2cc(Nc3ccc(N4CCC(O)CC4)cn3)c3c(=O)[nH]ccc3n2)CC1 [I-75, 4-[[5-(4-hydroxy-1-piperidyl)-2-pyridyl]amino]-2-(1-methyl-4-piperidyl)-6H-1,6-naphthyridin-5-one]"
10,100 to 1000,"CC(C)c1cc(Nc2ccc(N3CCC(O)CC3)cn2)c2c(=O)[nH]cnc2n1 [I-59, 5-[[5-(4-hydroxy-1-piperidyl)-2-pyridyl]amino]-7-isopropyl-3H-pyrido[2,3-d]pyrimidin-4-one]"
11,100 to 1000,"O=c1[nH]ccc2nc(N3CCCCC3)cc(Nc3ccc(N4CCC(O)CC4)cn3)c12 [I-83, 4-[[5-(4-hydroxy-1-piperidyl)-2-pyridyl]amino]-2-(1-piperidyl)-6H-1,6-naphthyridin-5-one]"
12,100 to 1000,"N#Cc1c[nH]c(=O)c2c(Nc3ccc(N4CCC(O)CC4)cn3)cc(-c3c(F)cccc3F)nc12 [I-33, 2-(2,6-difluorophenyl)-4-[[5-(4-hydroxy-1-piperidyl)-2-pyridyl]amino]-5-oxo-6H-1,6-naphthyridine-8-carbonitrile]"
13,100 to 1000,"O=c1[nH]ccc2nc(-c3cc4[nH]ccc4cc3F)cc(Nc3ccc(N4CCC(O)CC4)cn3)c12 [I-118, 2-(5-fluoro-1H-indol-6-yl)-4-[[5-(4-hydroxy-1-piperidyl)-2-pyridyl]amino]-6H-1,6-naphthyridin-5-one]"
14,100 to 1000,"O=c1[nH]ccc2nc(N3CCC4(CCCN4)CC3)cc(Nc3ccc(N4CCC(O)CC4)cn3)c12 [I-236, 2-(1,8-diazaspiro [4.5]decan-8-yl)-4-[[5-(4-hydroxy-1-piperidyl)-2-pyridyl]amino]-6H-1,6-naphthyridin-5-one]"
15,≤ 100,"CC(C)Oc1cc(-c2cc(Nc3ccc(N4CCC(O)CC4)cn3)c3c(=O)[nH]ccc3n2)c(F)cc1C(=O)N1CCCCC1 [I-186, 2-[2-fluoro-5-isopropoxy-4-(piperidine-1-carbonyl)phenyl]-4-[[5-(4-hydroxy-1-piperidyl)-2-pyridyl]amino]-6H-1,6-naphthyridin-5-one]"
16,> 1000,"O=c1[nH]ccc2nc(-c3ccc(CN4CCOCC4)cc3F)cc(Nc3ccc(N4CCC(O)CC4)cn3)c12 [I-181, 2-[2-fluoro-4-(morpholino-methyl)phenyl]-4-[[5-(4-hydroxy-1-piperidyl)-2-pyridyl]amino]-6H-1,6-naphthyridin-5-one]"
17,100 to 1000,"COc1ccc(F)c(-c2cc(Nc3ccc(N4CCC(O)CC4)cn3)c3c(=O)[nH]ccc3n2)c1F [I-92, 2-(2,6-difluoro-3-methoxyphenyl)-4-((5-(4-hydroxypiperidin-1-yl)pyridin-2-yl)amino)-1,6-naphthyridin-5(6H)-one]"
18,100 to 1000,"Cc1c[nH]c(=O)c2c(Nc3ccc(N4CCC(O)CC4)cn3)ccnc12 [I-90, 4-[[5-(4-hydroxy-1-piperidyl)-2-pyridyl]amino]-8-methyl-6H-1,6-naphthyridin-5-one]"
19,≤ 100,"COc1cc(-c2cc(Nc3cccc(N4CCNCC4)n3)c3c(=O)[nH]ccc3n2)c(F)cc1C(=O)N1CCCCC1 [I-234, 2-[2-fluoro-5-methoxy-4-(piperidine-1-carbonyl)phenyl]-4-[(6-piperazin-1-yl-2-pyridyl)amino]-6H-1,6-naphthyridin-5-one]"
20,100 to 1000,"CCOc1cc(-c2cc(Nc3ccc(N4CCC(O)CC4)cn3)c3c(=O)[nH]ccc3n2)c(F)cc1C(=O)N1CCCCC1 [I-196, 2-[5-ethoxy-2-fluoro-4-(piperidine-1-carbonyl)phenyl]-4-[[5-(4-hydroxy-1-piperidyl)-2-pyridyl]amino]-6H-1,6-naphthyridin-5-one]"
21,≤ 100,"Cc1c[nH]c(=O)c2c(Nc3ccc(N4CCC(O)CC4)cn3)cc(-c3ccc(NC(=O)C4CCCCC4)cc3F)nc12 [I-158, N-[3-fluoro-4-[4-[[5-(4-hydroxy-1-piperidyl)-2-pyridyl]amino]-8-methyl-5-oxo-6H-1,6-naphthyridin-2-yl]phenyl] cyclohexane carboxamide]"
22,≤ 100,"CCNC(=O)c1ccc(Nc2cc(-c3c(F)cccc3F)nc3nc[nH]c(=O)c23)cc1 [I-14, 4-[[7-(2,6-difluoro-phenyl)-4-oxo-3H-pyrido[2,3-d]pyrimidin-5-yl]amino]-N-ethyl-benzamide]"
23,≤ 100,"COc1cc(-c2cc(Nc3ccc(N4CCC(O)CC4)cn3)c3c(=O)[nH]ccc3n2)c(F)cc1C(=O)N(C)C [I-230, 5-fluoro-4-[4-[[5-(4-hydroxy-1-piperidyl)-2-pyridyl]amino]-5-oxo-6H-1,6-naphthyridin-2-yl]-2-methoxy-N,N-dimethyl-benzamide]"
24,≤ 100,"CC(O)(c1ccc(F)c(-c2cc(Nc3ccc(N4CCC(O)CC4)cn3)c3c(=O)[nH]ccc3n2)c1)C(F)(F)F (single isomer, unassigned) [I-274, 2-(2-fluoro-5-(1,1,1-hydroxy-propan-2-yl)phenyl)-4-((5-(4-hydroxy-piperidin-1-y)pyridin-2-yl)amino)-1,6-naphthyridin-5(6H)-one]"
25,> 1000,"O=c1[nH]ccc2nc(-c3cc(CN4CC5(CCOC5)C4)ccc3F)cc(Nc3ccc(N4CCC(O)CC4)cn3)c12 [I-256, 2-[2-fluoro-5-(6-oxa-2-azaspiro [3.4]octan-2-ylmethyl)phenyl]-4-[[5-(4-hydroxy-1-piperidyl)-2-pyridyl]amino]-6H-1,6-naphthyridin-5-one]"
26,100 to 1000,"CCCc1cc(Nc2ccc(N3CCC(O)CC3)cn2)c2c(=O)[nH]cnc2n1 [I-60, 5-[[5-(4-hydroxy-1-piperidyl)-2-pyridyl]amino]-7-propyl-3H-pyrido[2,3-d]pyrimidin-4-one]"
27,100 to 1000,"COc1cc(-c2cc(Nc3ccc(N4C[C@H]5CC[C@@H](C4)O5)cn3)c3c(=O)[nH]ccc3n2)c(F)cc1C(=O)N1CCCCC1 [I-170, 2-[2-fluoro-5-methoxy-4-(piperidine-1-carbonyl)phenyl]-4-[[5-[(1R,5S)-8-oxa-3-azabicyclo [3.2.1]octan-3-yl]-2-pyridyl]amino]-6H-1,6-naphthyridin-5-one]"
28,100 to 1000,"O=c1[nH]ccc2nc(-c3cc(C4CCC4)ccc3F)cc(Nc3ccc(N4CCC(O)CC4)cn3)c12 [I-97, 2-(5-cyclobutyl-2-fluoro-phenyl)-4-[[5-(4-hydroxy-1-piperidyl)-2-pyridyl]amino]-6H-naphthyridin-5-one]"
29,≤ 100,"O=C(c1ccc(-c2cc(Nc3ccc(N4CCC(O)CC4)cn3)c3c(=O)[nH]ccc3n2)c(F)c1)N1CC2CCC1C2 (stereo not drawn) [I-137, 2-[4-(3-azabicyclo [2.2.1]heptane-3-carbonyl) 2-fluoro-phenyl]-4-[[5-(4-hydroxy-1-piperidyl)-2-pyridyl]amino]-6H-1,6-naphthyridin-5-one]"
30,≤ 100,"O=c1[nH]ccc2nc(N3CCC4(CCNC4)CC3)cc(Nc3ccc(N4CCC(O)CC4)cn3)c12 [I-235, 2-(2,8-diazaspiro[4.5]decan-8-yl)-4-[[5-(4-hydroxy-1-piperidyl)-2-pyridyl]amino]-6H-1,6-naphthyridin-5-one]"
